Laboratory results as given in article PMC7300217, “Surfactin Like Broad Spectrum Antimicrobial Lipopeptide Co-produced With Sublancin From Bacillus subtilis Strain A52: Dual Reservoir of Bioactives” (Frontiers in Microbiology, 2020).

Assays:
[1] = tested on: A. brassicicola MTCC 2102; assay: MIC against phytopathogenic fungi, 96-well microtiter plate assay; format: cell-based, Alternaria brassicicola; details: 1 × 10^5 spores/ml in PDB, 25°C, OD600 after 48 h, triplicate
Protocol: (§1) The antimicrobial activity was tested by well diffusion assay as mentioned earlier ([Singh et al., 2014]). Strain A52 was grown for 24 h in 500 ml of nutrient broth (NB, Hi-media, India) using 1000 ml flask and subsequently cells were removed by centrifugation (10,000 rpm for 15 min at 4°C). Supernatant was filtered through 0.22 μm filter (Millipore, United States) to obtain cell-free fermented broth (CFB) that was used for antimicrobial assay (50 μl) against various indicator strains and the activity was measured as diameter of inhibition zone. […]
(§2) The minimum inhibitory concentration (MIC) of HPLC purified peptides was evaluated by using microtiter plate dilution assay. […] OD was measured at 600 nm after 24 and 48 h for bacteria and yeast, respectively, using ELISA microplate reader (Thermo, United States). MIC against phytopathogenic fungi was determined using 96-well microtiter plate assay ([Kaur et al., 2016]). […] The microplates were incubated at 25°C and readings were recorded at 600 nm after 48 h. […]

S. aureus MTCC 1430 [2] = assay: MIC, microtiter plate dilution assay; format: cell-based, Staphylococcus aureus; details: 5 × 10^5 CFU/ml, 37°C, OD600 after 24 h, triplicate
Protocol: as §1, §2

C. albicans MTCC 183 [3] = assay: MIC, microtiter plate dilution assay; format: cell-based, Candida albicans; details: 5 × 10^5 CFU/ml, 37°C, OD600 after 48 h, triplicate
Protocol: (§3) The antimicrobial activity was tested by well diffusion assay as mentioned earlier ([Singh et al., 2014]). Strain A52 was grown for 24 h in 500 ml of nutrient broth (NB, Hi-media, India) using 1000 ml flask and subsequently cells were removed by centrifugation (10,000 rpm for 15 min at 4°C). Supernatant was filtered through 0.22 μm filter (Millipore, United States) to obtain cell-free fermented broth (CFB) that was used for antimicrobial assay (50 μl) against various indicator strains and the activity was measured as diameter of inhibition zone. Test strains used were Staphylococcus aureus (MTCC 1430), Bacillus subtilis (MTCC 121), B. firmus (MTCC 488), B. licheniformis (MTCC 429), B. thuringiensis (MTCC 1953), Escherichia coli (MTCC 1610), Micrococcus luteus (MTCC 106), Steptococcus pyrogens (MTCC 1928), S. anginosus (MTCC 1929), S. oralis (MTCC 2696), S. mutans (MTCC 497), Candida albicans (MTCC 1637), C. albicans (MTCC 183), C. albicans (MTCC 227), C. tropicalis (MTCC 184), C. glabrata (MTCC 3019), C. haemulonii (MTCC 2766), and C. inconsplicue (MTCC 1074). The phytopathogenic fungi employed in this study were Alternaria brassicicola (MTCC 2102), Colletotrichum acutatum (MTCC 1037), and Fusarium moniliforme (MTCC 158). Clinical isolates of Candida were provided by National Culture Collection of Pathogenic Fungi (NCCPF), PGIMER, Chandigarh, India.
(§4) The minimum inhibitory concentration (MIC) of HPLC purified peptides was evaluated by using microtiter plate dilution assay. The peptide concentration was estimated using BCA protein assay (Thermo Fisher Scientific, United States) method as described by manufacturer. Actively growing test strains (5 × 10^5 CFU/ml) were inoculated in a 96-well plate with different concentrations of the peptides and plates were incubated for 24–48 h at 37°C (final volume in each well is 200 μl). OD was measured at 600 nm after 24 and 48 h for bacteria and yeast, respectively, using ELISA microplate reader (Thermo, United States). MIC against phytopathogenic fungi was determined using 96-well microtiter plate assay ([Kaur et al., 2016]). In 96-well microplates, 100 μl of fungal spore suspension (1 × 10^5 spores/ml) prepared in potato dextrose broth (PDB, Hi-media, India) was mixed with100 μl of fresh PDB containing different concentrations of lipopeptide. Control well contained 100 μl of fungal spore suspension and 100 μl of only medium. The microplates were incubated at 25°C and readings were recorded at 600 nm after 48 h. The lowest concentration showing no growth was considered as MIC. Each test was done in triplicate and optical density (OD600) of peptide treated wells were compared with uninoculated wells (blank medium control).

[4] = tested on: C. albicans 400054 (clinical isolate); assay: MIC, microtiter plate dilution assay; format: cell-based, Candida albicans; details: 5 × 10^5 CFU/ml, 37°C, OD600 after 48 h, triplicate
Protocol: as §3, §4

S. aureus MTCC 1430 [5] = assay: Transmission electron microscopy of treated cells; format: cell-based, Staphylococcus aureus; details: 2X and 5X MIC, 37°C overnight
Protocol: (§5) The effect of peptide on cell membrane was determined by scanning electron microscopy (SEM) and transmission electron microscopy (TEM) after treatment with AMPs. For this, test strains S. aureus MTCC 1430 and C. albicans MTCC 183 were cultured to mid-log phase in respective media. The cells were harvested by centrifugation at 10,000 × g for 10 min, washed thrice with 1X PBS, and re-suspended to adjust an OD600 of 0.2. […] Following the incubation, cells were processed for SEM and TEM as described ([Raje et al., 2006]). The specimens were completely dried using freeze drier, coated with gold, and visualized under a scanning electron microscope (ZEISS, Germany). For TEM (JEOL, JEM 2100, United States), cells were treated with peptide, washed, and subjected to negative stain 0.1% sodium phosphotungstate (Sigma, United States) for visualization. Effect of A52 lipopeptide on fungal spore was observed through a phase contrast microscope (Nickon H600L, Japan).

F. moniliforme MTCC 158 = assay: MIC against phytopathogenic fungi, 96-well microtiter plate assay; format: cell-based, Fusarium moniliforme; details: 1 × 10^5 spores/ml in PDB, 25°C, OD600 after 48 h, triplicate
Protocol: as §3
as §2, with “assay. The peptide concentration was estimated using BCA protein assay (Thermo Fisher Scientific, United States) method as described by manufacturer.” for “assay.”

C. albicans MTCC 183 [6] = assay: Scanning electron microscopy of treated cells; format: cell-based, Candida albicans; details: 2X and 5X MIC, 37°C overnight
Protocol: as §5

C. acutatum MTCC1037 = assay: MIC against phytopathogenic fungi, 96-well microtiter plate assay; format: cell-based, Colletotrichum acutatum; details: 1 × 10^5 spores/ml in PDB, 25°C, OD600 after 48 h, triplicate
Protocol: as §1, §2

S. aureus MTCC 1430 [7] = assay: Time kill assay; format: cell-based, Staphylococcus aureus; details: 5X MIC, cells in PBS, CFU plated on nutrient agar
Protocol: Purified AMPs were used to perform time kill assay against S. aureus MTCC 1430 as mentioned earlier ([Baindara et al., 2016]). Actively growing bacterial culture (0.2–0.3 OD at 600 nm) was centrifuged (10,000 rpm for 15 min at 4°C) and washed thrice with sterile PBS buffer. […] Upon incubation for different time intervals, cells were removed from reaction mixture by centrifugation and washed with PBS buffer. Bacterial culture without AMP treatment was used as negative control. Samples were withdrawn at the end of different treatment time points starting from 0 to 8 h, bacterial cells were pelleted, serially diluted, and cell suspensions were plated on nutrient agar plates. For each treatment, negative controls were also processed under identical conditions and plated on NA. CFU at different time intervals were recorded after overnight incubation at 37°C.

Glu^1-Leu/Ile^2-Leu^3-Val^4-Asp^5-Leu^6-Leu/Ile^7 and a β-OH hexadecane fatty acid chain (lariat or depsi) [Lipopeptide A52, cyclic surfactin-like lipopeptide, 7 amino acids and C16 β-hydroxy fatty acid, 1061.9 Da, from B. subtilis strain A52]
MIC value, A. brassicicola MTCC 2102 [1]: 25 µg/mL
MIC value, S. aureus MTCC 1430 (S. aureus MTCC 1430 [2]): 4 µg/mL
MIC value, C. albicans MTCC 183 (C. albicans MTCC 183 [3]): 12 µg/mL
MIC value, C. albicans 400054 [4]: 16 µg/mL
cell morphology in TEM images (S. aureus MTCC 1430 [5]): wall rupturing and cellular lysis
MIC value, F. moniliforme MTCC 158 (F. moniliforme MTCC 158): 20 µg/mL
cell morphology in SEM images (C. albicans MTCC 183 [6]): disintegrated outer cell membrane
MIC value, C. acutatum MTCC1037 (C. acutatum MTCC1037): 35 µg/mL
time of treatment to complete killing / complete reduction of bacterial load (S. aureus MTCC 1430 [7]): ≤ 7 h
